Measured values taken from US20180037568A1, “MODULATORS OF METHYL MODIFYING ENZYMES, COMPOSITIONS AND USES THEREOF” (Constellation Pharmaceuticals, Inc., priority 2015, published 2018).
Read-outs that look alike come from different tables or passages of the source.

Key:
H3K27me3 mark = experiment: H3K27me3 Alpha Hela Assay (AlphaLISA); assay type: cell-based; details: Hela cells, read-out: EZH2 Cell H3K27me3 Alpha HeLa (EC50 K27me3)
Outline: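 HeLa cells at 1,000/well were treated with ten 3-fold compound doses for 72 h at 37 °C. After lysis and histone extraction, H3K27me3 was detected by AlphaLISA with anti-K27me3 acceptor beads, biotinylated anti-H3 (C-ter) antibody (3 nM final) and streptavidin donor beads (20 μg/mL final). Signals were normalized to DMSO and curve-fitted for EC50.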

EZH2 = EZH2 (Homo sapiens, UniProt Q15910); experiment: EZH2 nuc BSA Brij 1.5 (IC50): rPRC2, biotinylated oligonucleosome substrate, 3H SAM FlashPlate; assay type: biochemical
EZH2, sequence (Q15910 whole entry): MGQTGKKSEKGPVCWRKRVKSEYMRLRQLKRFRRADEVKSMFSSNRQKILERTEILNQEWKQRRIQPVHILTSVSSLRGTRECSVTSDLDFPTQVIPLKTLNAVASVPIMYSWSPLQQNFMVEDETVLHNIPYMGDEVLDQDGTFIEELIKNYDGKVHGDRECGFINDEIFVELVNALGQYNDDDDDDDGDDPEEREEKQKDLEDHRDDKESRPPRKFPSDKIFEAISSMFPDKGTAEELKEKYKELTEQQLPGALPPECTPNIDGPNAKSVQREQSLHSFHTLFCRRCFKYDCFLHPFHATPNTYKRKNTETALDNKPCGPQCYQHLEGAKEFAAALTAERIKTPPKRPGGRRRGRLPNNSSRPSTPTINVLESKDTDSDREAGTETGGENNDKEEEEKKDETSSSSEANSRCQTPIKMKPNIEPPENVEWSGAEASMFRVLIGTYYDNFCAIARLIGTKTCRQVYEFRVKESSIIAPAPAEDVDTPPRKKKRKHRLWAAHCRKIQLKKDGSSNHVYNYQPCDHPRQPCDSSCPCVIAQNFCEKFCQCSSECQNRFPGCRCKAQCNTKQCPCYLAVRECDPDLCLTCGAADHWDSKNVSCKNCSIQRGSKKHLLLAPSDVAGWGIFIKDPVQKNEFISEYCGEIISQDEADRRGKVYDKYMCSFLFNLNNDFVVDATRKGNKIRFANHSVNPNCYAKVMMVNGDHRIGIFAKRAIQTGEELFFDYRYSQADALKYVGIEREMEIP
EZH2, sequence (O75530 whole entry partner): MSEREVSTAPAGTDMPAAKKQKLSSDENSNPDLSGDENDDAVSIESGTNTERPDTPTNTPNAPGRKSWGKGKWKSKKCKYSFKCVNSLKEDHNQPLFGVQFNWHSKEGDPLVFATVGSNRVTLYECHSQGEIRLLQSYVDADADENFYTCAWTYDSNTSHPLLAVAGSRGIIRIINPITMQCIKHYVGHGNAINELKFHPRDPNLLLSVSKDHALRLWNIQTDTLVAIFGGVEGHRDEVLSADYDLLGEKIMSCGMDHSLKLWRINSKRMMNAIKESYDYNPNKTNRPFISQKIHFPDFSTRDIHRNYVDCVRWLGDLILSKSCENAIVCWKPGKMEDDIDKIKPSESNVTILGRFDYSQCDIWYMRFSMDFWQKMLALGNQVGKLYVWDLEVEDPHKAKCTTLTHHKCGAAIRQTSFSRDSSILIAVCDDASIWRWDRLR
EZH2, sequence (Q15022 whole entry partner): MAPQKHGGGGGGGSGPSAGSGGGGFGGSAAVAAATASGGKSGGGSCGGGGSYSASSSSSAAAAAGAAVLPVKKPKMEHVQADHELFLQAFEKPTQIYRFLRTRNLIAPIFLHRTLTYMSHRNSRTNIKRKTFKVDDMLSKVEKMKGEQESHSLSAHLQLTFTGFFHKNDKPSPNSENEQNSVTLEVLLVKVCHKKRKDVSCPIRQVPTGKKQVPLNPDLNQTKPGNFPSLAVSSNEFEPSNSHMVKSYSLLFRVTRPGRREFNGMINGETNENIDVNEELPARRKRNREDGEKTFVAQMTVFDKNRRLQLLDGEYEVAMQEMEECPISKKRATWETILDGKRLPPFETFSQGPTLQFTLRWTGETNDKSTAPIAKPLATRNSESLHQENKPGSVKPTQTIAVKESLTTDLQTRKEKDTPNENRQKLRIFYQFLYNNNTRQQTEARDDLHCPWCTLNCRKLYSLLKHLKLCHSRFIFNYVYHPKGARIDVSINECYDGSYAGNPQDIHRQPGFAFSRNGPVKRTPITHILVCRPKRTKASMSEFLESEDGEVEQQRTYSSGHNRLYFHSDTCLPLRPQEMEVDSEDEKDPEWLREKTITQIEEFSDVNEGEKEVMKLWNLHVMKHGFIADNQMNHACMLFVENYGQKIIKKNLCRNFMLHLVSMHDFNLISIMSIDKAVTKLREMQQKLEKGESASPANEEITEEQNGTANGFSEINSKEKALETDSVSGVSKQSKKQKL
Description: EZH2 Nuc BSA Brij 1.5 (IC50):
Assays were carried out by mixing rPRC2 together with biotinylated oligonucleosome substrates in the presence of the radio-labeled enzyme co-factor, S-adenosyl-L-methionine (^3H SAM) (Perkin Elmer) and monitoring the enzymatically mediated transfer of tritiated methyl groups from ^3H SAM to histone lysine residues. The amount of resulting tritiated methyl histone product was measured by first capturing the biotinylated oligonucleosomes in streptavidin (SAV) coated FlashPlates (Perkin Elmer), followed by a wash step to remove un-reacted ^3H SAM, and then counting on a TopCount NXT 384 well plate scintillation counter (Perkin Elmer). The final assay conditions for EZH2 were as follows: 50 mM Tris Buffer pH 8.5, 1 mM DTT, 69 μM Brij-35 detergent, 5.0 mM MgCl2, 0.1 mg/mL BSA, 0.2 μM ^3H SAM, 0.2 μM biotinylated oligonucleosomes, 3.6 μM H3K27me3 peptide and 2 nM EZH2.
Compound IC50 Measurements were Obtained as Follows:
Compounds were first dissolved in 100% DMSO as 10 mM stock solutions. Ten point dose response curves were generated by dispensing varying amounts of the 10 mM compound solution in 10 wells of the 384 well plate (Echo; Labcyte), pure DMSO was then used to backfill the wells to insure all wells have the same amount of DMSO. A 12.5 μL volume of the HMT enzyme, H3K27me3 peptide and oligonucleosome substrate in assay buffer was added to each well of the assay plate using a Multidrop Combi (ThermoFisher). Compounds were pre-incubated with the enzyme for 20 min, followed by initiation of the methyltransferase reaction by addition of 12.5 μL of ^3H SAM in assay buffer (final volume=25 μL). The final concentrations of compounds ranged from a top default concentration of 80 μM down to 0.16 μM in ten 2-fold dilution steps. Reactions were carried out for 60 minutes and quenched with 20 μL per well of 1.96 mM SAH, 50 mM Tris pH 8.5, 200 mM EDTA. Stopped reactions were transferred to SAV coated Flashplates (Perkin Elmer), incubated for 120 min, washed with a plate washer, and then read on the TopCount NXT (1.0 min/well) to measure the amount of methyl histone product formed during the reaction. The amount of methyl histone product was compared with the amount of product formed in the 0% and 100% inhibition control wells allowing the calculation of % Inhibition in the presence of the individual compounds at various concentrations. IC50's were computed using a 4 parameter fit non-linear curve fitting software package (XLFIT, part of the database package, ActivityBase (IDBS)) where the four parameters were IC50, Hill slope, pre-transitional baseline (0% INH), and post-transitional baseline (100% INH); with the latter two parameters being fixed to zero and 100%, respectively, by default.

PRC2 containing wt EZH2 = biological target: T1, PRC2 containing wt EZH2 (Homo sapiens, UniProt Q15910); experiment: EZH2 pep BSA Brij 4.0 LowE (IC50): 3H-SAM incorporation into biotinylated H3 peptide; assay type: biochemical
T1 construct: made in house
T1 sequence (Q15910 whole entry): as the sequence (Q15910 whole entry) above
T1 sequence (O75530 whole entry partner): as the sequence (O75530 whole entry partner) above
T1 sequence (Q15022 whole entry partner): as the sequence (Q15022 whole entry partner) above
T1 sequence (Q09028 whole entry partner): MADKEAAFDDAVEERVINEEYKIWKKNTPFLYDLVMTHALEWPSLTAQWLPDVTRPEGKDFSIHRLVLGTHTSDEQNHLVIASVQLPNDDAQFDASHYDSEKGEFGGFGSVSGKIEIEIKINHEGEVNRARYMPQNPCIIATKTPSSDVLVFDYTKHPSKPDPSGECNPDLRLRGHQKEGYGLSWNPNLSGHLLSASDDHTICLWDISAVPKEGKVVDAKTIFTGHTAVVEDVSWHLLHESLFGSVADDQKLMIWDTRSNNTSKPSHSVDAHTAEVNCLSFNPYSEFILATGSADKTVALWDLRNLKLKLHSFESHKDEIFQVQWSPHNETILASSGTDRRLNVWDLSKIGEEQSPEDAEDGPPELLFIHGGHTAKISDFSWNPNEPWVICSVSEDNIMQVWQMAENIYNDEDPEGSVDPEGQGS
T1 sequence (Q6ZN18 whole entry partner): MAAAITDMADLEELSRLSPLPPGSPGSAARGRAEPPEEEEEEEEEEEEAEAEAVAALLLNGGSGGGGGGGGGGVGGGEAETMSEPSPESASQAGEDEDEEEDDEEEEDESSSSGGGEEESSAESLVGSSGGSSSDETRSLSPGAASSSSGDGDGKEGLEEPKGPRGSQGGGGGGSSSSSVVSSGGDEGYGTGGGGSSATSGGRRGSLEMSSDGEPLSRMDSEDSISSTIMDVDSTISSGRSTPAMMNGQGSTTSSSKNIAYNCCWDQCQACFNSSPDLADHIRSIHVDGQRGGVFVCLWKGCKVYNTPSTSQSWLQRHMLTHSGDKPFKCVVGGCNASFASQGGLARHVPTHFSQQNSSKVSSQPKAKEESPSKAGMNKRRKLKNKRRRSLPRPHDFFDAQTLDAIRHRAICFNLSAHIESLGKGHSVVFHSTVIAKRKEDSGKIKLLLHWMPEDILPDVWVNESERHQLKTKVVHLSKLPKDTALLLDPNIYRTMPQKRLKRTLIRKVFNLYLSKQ
Outline: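 PRC2 (wt EZH2, 20 pM) pre-incubated 120 min with compound, 0.9 μM 3H-SAM and 2 μM H3K27me3 activating peptide in pH 8.5 Tris/DTT/Brij-35/0.1% BSA, 0.8% DMSO. Biotinylated H3K27me1 peptide added (2 μM stock), 5 h at room temperature, EDTA/SAH quench, streptavidin Flashplate capture. IC50 from four-parameter fit versus full-activity and no-enzyme controls.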

[1] = read-out: EZH2 nuc BSA Brij 1.5 (IC50); 2 nM EZH2, 0.2 μM biotinylated oligonucleosomes, 0.2 μM 3H SAM, 3.6 μM H3K27me3 peptide
[2] = read-out: EZH2 pep BSA Brij 4.0 LowE (IC50); 20 pM PRC2 wt EZH2, 0.9 μM 3H-SAM, biotinylated H3 peptide substrate, 2 μM H3K27me3 activating peptide
[3] = EZH2 pep BSA Brij 4.0 LowE (IC50), 20 pM PRC2 wt EZH2, 0.9 μM 3H-SAM, biotinylated H3 peptide substrate, 2 μM H3K27me3 activating peptide
[4] = EZH2 nuc BSA Brij 1.5 (IC50), 2 nM EZH2, 0.2 μM biotinylated oligonucleosomes, 0.2 μM 3H SAM, 3.6 μM H3K27me3 peptide

SMILES | EC50 (H3K27me3 mark; 72 hrs) [nM] | IC50 (EZH2; [1]) [nM] | EC50 (H3K27me3 mark; Homo sapiens, HeLa, 72 h) [nM] | IC50 (EZH2; [4]) [nM] | other results
COc1cc(C)[nH]c(=O)c1CNC(=O)c1c(C)n(C(C)C2CCN(C)C(C(F)(F)F)C2)c2ccccc12 (single isomer, unassigned) [Compound 24, N-((4-methoxy-6-methyl-2-oxo-1,2-dihydropyridin-3-yl)methyl)-2-methyl-1-(1-(1-methyl-2-(trifluoromethyl)piperidin-4-yl)ethyl)-1H-indole-3-carboxamide] | < 400 | < 100 |  |  | IC50 (PRC2 containing wt EZH2; [2]): < 100 nM
COc1cc(C)[nH]c(=O)c1CNC(=O)c1c(C)n(C(C)C2CCN(C)C(C(F)(F)F)C2)c2ccccc12 (single isomer, unassigned) [Compound 15, N-((4-methoxy-6-methyl-2-oxo-1,2-dihydropyridin-3-yl)methyl)-2-methyl-1-(1-(1-methyl-2-(trifluoromethyl)piperidin-4-yl)ethyl)-1H-indole-3-carboxamide] | < 400 | < 100 |  |  | IC50 (PRC2 containing wt EZH2; [3]): < 100 nM
COc1cc(C)[nH]c(=O)c1CNC(=O)c1c(C)n(C(C)C2CCN(CC(F)F)C(C)C2)c2ccccc12 (single isomer, unassigned) [Compound 40, 1-(1-(1-(2,2-difluoroethyl)-2-methylpiperidin-4-yl)ethyl)-N-((4-methoxy-6-methyl-2-oxo-1,2-dihydropyridin-3-yl)methyl)-2-methyl-1H-indole-3-carboxamide] |  |  | < 400 | < 100 | IC50 (PRC2 containing wt EZH2; [3]): < 100 nM
COc1cc(C)[nH]c(=O)c1CNC(=O)c1c(C)n(C(C)C2CCNC(c3ccc(F)cc3)C2)c2ccccc12 (single isomer, unassigned) [Compound 31, 1-(1-(2-(4-fluorophenyl)piperidin-4-yl)ethyl)-N-((4-methoxy-6-methyl-2-oxo-1,2-dihydropyridin-3-yl)methyl)-2-methyl-1H-indole-3-carboxamide] | 400 to 2000 |  |  |  | IC50 (EZH2; 2 nM EZH2, 0.2 μM biotinylated oligonucleosomes, 0.2 μM 3H SAM, 3.6 μM H3K27me3 peptide; read-out: EZH2 nuc BSA Brij 1.5 (IC50)): < 100 nM; IC50 (PRC2 containing wt EZH2; 20 pM PRC2 wt EZH2, 0.9 μM 3H-SAM, biotinylated H3 peptide substrate, 2 μM H3K27me3 activating peptide; read-out: EZH2 pep BSA Brij 4.0 LowE (IC50)): < 100 nM
COc1cc(C)[nH]c(=O)c1CNC(=O)c1c(C)n(C(C)C2CCNC(C(F)(F)F)C2)c2ccccc12 (single isomer, unassigned) [Compound 18, N-((4-methoxy-6-methyl-2-oxo-1,2-dihydropyridin-3-yl)methyl)-2-methyl-1-(1-(2-(trifluoromethyl)piperidin-4-yl)ethyl)-1H-indole-3-carboxamide] | < 400 |  |  | < 100 | IC50 (PRC2 containing wt EZH2; [2]): < 100 nM
COc1cc(C)[nH]c(=O)c1CNC(=O)c1c(C)n(C(C)C2CCNC3CCCCC32)c2ccccc12 (centres unmarked) [Compound 4, 1-(1-(decahydroquinolin-4-yl)ethyl)-N-((4-methoxy-6-methyl-2-oxo-1,2-dihydropyridin-3-yl)methyl)-2-methyl-1H-indole-3-carboxamide] |  |  | > 2000 | < 100 | 
COc1cc(C)[nH]c(=O)c1CNC(=O)c1c(C)n(C(C)C2CCNC(C(F)(F)F)C2)c2ccccc12 (single isomer, unassigned) [Compound 22, N-((4-methoxy-6-methyl-2-oxo-1,2-dihydropyridin-3-yl)methyl)-2-methyl-1-(1-(2-(trifluoromethyl)piperidin-4-yl)ethyl)-1H-indole-3-carboxamide] | 400 to 2000 |  |  | < 100 | 
COc1cc(C)[nH]c(=O)c1CNC(=O)c1c(C)n(C(C)C2CCN(CC(F)F)C(C)C2)c2ccccc12 (single isomer, unassigned) [Compound 41, 1-(1-(1-(2,2-difluoroethyl)-2-methylpiperidin-4-yl)ethyl)-N-((4-methoxy-6-methyl-2-oxo-1,2-dihydropyridin-3-yl)methyl)-2-methyl-1H-indole-3-carboxamide] | < 400 | < 100 |  |  | 
COc1cc(C)[nH]c(=O)c1CNC(=O)c1c(C)n(C(C)C2CCN(CC3CC3)C(C(F)(F)F)C2)c2ccccc12 (single isomer, unassigned) [Compound 38, 1-(1-(1-(cyclopropylmethyl)-2-(trifluoromethyl)piperidin-4-yl)ethyl)-N-((4-methoxy-6-methyl-2-oxo-1,2-dihydropyridin-3-yl)methyl)-2-methyl-1H-indole-3-carboxamide] |  |  | > 2000 | < 100 | 
COc1cc(C)[nH]c(=O)c1CNC(=O)c1c(C)n(C(C)C2CCN(C)C(=O)C2)c2ccccc12 (centres unmarked) [Compound 11, N-((4-methoxy-6-methyl-2-oxo-1,2-dihydropyridin-3-yl)methyl)-2-methyl-1-(1-(1-methyl-2-oxopiperidin-4-yl)ethyl)-1H-indole-3-carboxamide] |  |  | > 2000 | < 100 | 
COc1cc(C)[nH]c(=O)c1CNC(=O)c1c(C)n(C(C)C2CCNc3ccccc32)c2ccccc12 (single isomer, unassigned) [Compound 1] |  |  | > 2000 | < 100 | 
COc1cc(C)[nH]c(=O)c1CNC(=O)c1c(C)n(C(C)C2CCNC(C(F)(F)F)C2)c2ccccc12 (single isomer, unassigned) [Compound 20, N-((4-methoxy-6-methyl-2-oxo-1,2-dihydropyridin-3-yl)methyl)-2-methyl-1-(1-(2-(trifluoromethyl)piperidin-4-yl)ethyl)-1H-indole-3-carboxamide] | 400 to 2000 |  |  | < 100 | 
CCN1CCC(C(C)n2c(C)c(C(=O)NCc3c(OC)cc(C)[nH]c3=O)c3ccccc32)CC1C(F)(F)F (single isomer, unassigned) [Compound 9, 1-(1-(1-ethyl-2-(trifluoromethyl)piperidin-4-yl)ethyl)-N-((4-methoxy-6-methyl-2-oxo-1,2-dihydropyridin-3-yl)methyl)-2-methyl-1H-indole-3-carboxamide] | > 2000 |  |  | < 100 | 
COc1cc(C)[nH]c(=O)c1CNC(=O)c1c(C)n(C(C)C2CCNC(C(F)F)C2)c2ccccc12 (single isomer, unassigned) [Compound 37, 1-(1-(2-(difluoromethyl)piperidin-4-yl)ethyl)-N-((4-methoxy-6-methyl-2-oxo-1,2-dihydropyridin-3-yl)methyl)-2-methyl-1H-indole-3-carboxamide] | 400 to 2000 | < 100 |  |  | 
CCN1CCC(C(C)n2c(C)c(C(=O)NCc3c(OC)cc(C)[nH]c3=O)c3ccccc32)CC1C(F)(F)F (single isomer, unassigned) [Compound 10, 1-(1-(1-ethyl-2-(trifluoromethyl)piperidin-4-yl)ethyl)-N-((4-methoxy-6-methyl-2-oxo-1,2-dihydropyridin-3-yl)methyl)-2-methyl-1H-indole-3-carboxamide] | < 400 | < 100 |  |  | 
